According to patent US11185488B2, “Skin external preparation composition for moisturizing skin containing 1,2,3,4,6-penta-O-galloyl-β-D-glucose” (AMOREPACIFIC CORPORATION, priority 2017, dated 2021):

Columns and labels:
Format in all cases: cell-based
filaggrin = test: Gene expression level of filaggrin (RNA separation and RT-PCR); settings: neonatal keratinocytes, 1 ppm, 2 days; for Increase in filaggrin expression(%): corrected to RPL13A
Description: Neonatal keratinocytes (obtained from Lonza) was dispensed into a 60 mm cell culture dish at a density of 1.25×10^6 cells/dish using KGM medium, and then cultured at 37° C. in a 5% CO2 incubator up to about 80% confluency. Then, eight compounds including PGG from soybean, green tea, ginseng, and other natural products were selected as test substances (Table 1), and the cells were treated with each of these compounds at 1 ppm and cultured for 2 days. After the culture, the medium was removed, and 1 ml of Trizol (Invitrogen) was added, and mRNA was isolated according to an RNA isolation method of Invitrogen. mRNA was quantified at 260 nm using an ultraviolet detector (Hewlett Packard), and RT-PCR (Reverse Transcription-Polymerase Chain Reaction) was performed. For genetic analysis of each sample, correction was performed based on the complementary gene, RPL13A, and the expression level of filaggrin for each sample is shown in Table 1 below.

involucrin (IVL) = test: Gene increase experiment for involucrin (IVL) (RNA isolation and RT-PCR); settings: keratinocytes, 4 days, corrected to RPLP0, FIG. 2
Description: (§1) Neonatal keratinocytes was dispensed into a 60 mm cell culture dish at a density of 1.25×10^6 cells/dish using KGM medium, and then cultured at 37° C. in a 5% CO2 incubator up to about 80% confluency. Then, the keratinocytes were treated with 0.2 ppm or 1 ppm of PGG, cultured for 4 days. After the culture, the medium was removed and 1 ml of Trizol (Invitrogen) was added thereto, and mRNA was isolated according to the RNA isolation method of Invitrogen. After quantifying mRNA at 260 nm using a CV detector (HEWLETT PACKARD), RT-PCR (Reverse transcription-polymerase chain reaction) was performed by using the primers of LOR and IVL (LOR-HS01894962_s1, IVL HS00846307_s1, respectively, both of which were obtained from Life Technologies). For genetic analysis of each sample, the correction was performed based on the complementary gene, RPLP0, and the results are shown in Table 2 below.

Neonatal keratinocytes = test: Evaluation of cytotoxicity of PGG (cell viability); settings: PGG 0, 1, 2, 4 ppm, cultured 4 days, FIG. 1
Description: Neonatal keratinocytes (obtained from Lonza) was dispensed into a 60 mm cell culture dish at a density of 1.25×10^6 cells/dish using KGM medium, and then cultured at 37° C. in a 5% CO2 incubator up to about 80% confluency. Then, the cells were treated with PGG at concentrations of 0 ppm, 1 ppm, 2 ppm, and 4 ppm, cultured for 4 days, and then the viability of the cells was confirmed.

loricrin (LOR) = test: Gene increase experiment for loricrin (LOR) (RNA isolation and RT-PCR); settings: keratinocytes, 4 days, corrected to RPLP0, FIG. 2
Description: as §1

SMILES: O=c1c(-c2ccc(O)cc2)coc2cc(O)c(O)cc12 [6,7,4′-trihydroxyisoflavone]
- Increase in filaggrin expression(%) (filaggrin): 103%

SMILES: O=c1c(-c2ccc(O)c(O)c2)coc2cc(O)ccc12 [7,3′,4′-trihydroxyisoflavone]
- Increase in filaggrin expression(%) (filaggrin): 110%

SMILES: Oc1cc(O)c2c(c1)O[C@H](c1ccc(O)c(O)c1)[C@H](O)C2 [(−)-Epicatechin(EC), (−)-Epicatechin]
- Increase in filaggrin expression(%) (filaggrin): 108%

SMILES: C[C@]12C[C@@H](O)[C@@H]3C[C@@]1(O[C@@H]1O[C@H](CO)[C@@H](O)[C@H](O)[C@H]1O)[C@@]3(COC(=O)c1ccccc1)C(=O)O2 [Albiflorin]
- Increase in filaggrin expression(%) (filaggrin): 107%

SMILES: O=c1c(O[C@@H]2O[C@H](CO)[C@@H](O)[C@H](O)[C@H]2O)c(-c2ccc(O)cc2)oc2cc(O)cc(O)c12 [Astragalin]
- Increase in filaggrin expression(%) (filaggrin): 105%

SMILES: O=C(OC[C@H]1O[C@@H](OC(=O)c2cc(O)c(O)c(O)c2)[C@H](OC(=O)c2cc(O)c(O)c(O)c2)[C@@H](OC(=O)c2cc(O)c(O)c(O)c2)[C@@H]1OC(=O)c1cc(O)c(O)c(O)c1)c1cc(O)c(O)c(O)c1 [PGG, 1,2,3,4,6-penta-O-galloyl-β-D-glucose]
- expression level of involucrin gene compared to control group (involucrin (IVL); 0.2 ppm): three-fold or more increase
- increase of involucrin gene compared to control group (involucrin (IVL); 1 ppm): 5 times
- rate of increase in the expression of filaggrin versus control group (filaggrin): more than 2 times
- Increase in filaggrin expression(%) (filaggrin): 229%
- cell viability (Neonatal keratinocytes): no significant difference in cell viability
- expression level of loricrin gene compared to control group (loricrin (LOR); 0.2 ppm): almost no difference compared to the control group
- increase of loricrin gene compared to control group (loricrin (LOR); 1 ppm): ≥ 2 times

SMILES: C[C@@]12C[C@@]3(O)O[C@@H](O1)[C@]1(COC(=O)c4ccccc4)[C@H]3C[C@@]12O[C@@H]1O[C@H](CO)[C@@H](O)[C@H](O)[C@H]1O [Paeoniflorin]
- Increase in filaggrin expression(%) (filaggrin): 116%

SMILES: COc1cc([C@H]2OC[C@H]3[C@@H]2CO[C@@H]3c2cc(OC)c(O)c(OC)c2)cc(OC)c1O [Syringaresinol]
- Increase in filaggrin expression(%) (filaggrin): 103%
